Measured values published in patent US9585891B2 (MERCK PATENT GMBH, priority 2012, dated 2017).

How the values were obtained:
[1] = biological target: T1, Vanin-1 in SUIT-S2 cell line (Homo sapiens, UniProt O95497); assay: Vanin-1 cell-based mechanistic assay (fluorescence intensity, Pantothenate-AMC substrate); settings: 40000 cells per well, 2 hours incubation at 37° C., Pantothenate-AMC 30 μM, 30 min
T1 construct: endogenous in cells; host or cells: SUIT-S2 cell line (ATCC # CRL1596)
T1 sequence (O95497 22-491): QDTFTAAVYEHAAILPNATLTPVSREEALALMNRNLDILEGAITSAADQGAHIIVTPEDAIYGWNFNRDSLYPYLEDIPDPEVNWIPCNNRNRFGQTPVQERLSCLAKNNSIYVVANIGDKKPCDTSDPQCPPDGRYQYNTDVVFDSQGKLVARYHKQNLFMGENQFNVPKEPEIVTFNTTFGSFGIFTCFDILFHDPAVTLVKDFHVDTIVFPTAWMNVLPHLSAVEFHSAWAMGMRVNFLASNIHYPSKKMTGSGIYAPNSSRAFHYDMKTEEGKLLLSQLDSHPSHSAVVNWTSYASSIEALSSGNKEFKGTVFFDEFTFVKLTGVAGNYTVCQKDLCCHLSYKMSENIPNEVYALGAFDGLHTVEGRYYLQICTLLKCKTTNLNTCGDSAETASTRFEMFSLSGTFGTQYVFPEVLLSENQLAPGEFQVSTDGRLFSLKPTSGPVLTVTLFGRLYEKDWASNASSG
Experimental: Vanin-1 Cell-Based Mechanistic Assay:
The cellular activity of the examples is measured in 96-well format based on fluorescence intensity assay using SUIT-S2 cell line (ATCC # CRL1596).
Cells are cultured at 37° C. with 5% CO2 to 80-90% confluence and then washed once with phosphate-buffered saline (PBS). Adherent cells are detached with PBS-EDTA and once in suspension 40000 cells are dispensed in 90 μl of PBS in 96-well black plates with clear bottoms. Threefold serial dilutions of test compounds are made in DMSO and then solubilized in PBS, dilution range 1:30. Cells and serial diluted test compounds (final concentrations 10 μM to 4.6 nM) or controls (PBS/0.3% DMSO) are incubated for 2 hours at 37° C. with 5% CO2. The reaction is initiated by the addition of the fluorogenic substrate, Pantothenate-AMC, at a concentration of 30 μM. After 30 minutes of incubation at 30° C. with gentle agitation, fluorescence intensity is measured at λex=350 nm and λem=450 nm with a fluorescence reader (BMG PHERAstar reader or equivalent).

[2] = biological target: T2, Human recombinant Vanin-1 (VNN1) (Homo sapiens, UniProt O95497); assay: Vanin-1 enzymatic assay (fluorescence intensity, Pantothenate-AMC substrate); format: biochemical; settings: purified recombinant human Vanin-1 0.5 nM; 30 min preincubation at 30° C.; Pantothenate-AMC 30 μM, 60 min
T2 construct: purchased Sino Biological Inc. 11662-H08H
T2 sequence (O95497 22-491): T1 sequence (O95497 22-491)
Experimental: Human recombinant Vanin-1 (VNN1) was purchased from Sino Biological Inc. (Catalog Number: 11662-H08H).
Measurement of VNN1 inhibition is performed in 384-well format based on fluorescence intensity assay. Purified recombinant human Vanin-1 (0.5 nM) and threefold serial diluted compounds in 3% DMSO (range of concentrations from 30 μM to 1.524 nM) or controls (3.0% DMSO) are incubated for 30 minutes at 30° C. with gentle agitation in assay buffer containing 100 mM potassium Phosphate Buffer (KPi), pH 7.5, 0.001% Bovine Serum Albumin (BSA), 0.5 mM dithiothreitol (DTT) and 0.0025% Brij-35. The reaction is initiated by the addition of the fluorogenic substrate, Pantothenate-AMC, at a concentration of 30 μM. After 60 minutes of incubation at 30° C. with gentle agitation, fluorescence intensity is measured at λex=350 nm and λem=450 nm with a fluorescence reader (BMG PHERAstar reader or equivalent).

| Compound | IC50 [1] [nM] | IC50 [2] [nM] |
| --- | --- | --- |
| CC(C)(CO)[C@@H](O)C(=O)NCCC(=O)C(=O)NCc1ccc(OCCNS(C)(=O)=O)cc1 [Example 39, (R)-2,4-Dihydroxy-N-(3-[4-(2-methanesulfonylamino-ethoxy)-benzylcarbamoyl]-3-oxo-propyl)-3,3-dimethyl-butyramide] | < 10 | 20 |
| CC(C)(CO)[C@@H](O)C(=O)NCCNC(=O)CCl [Example 57, (R)—N-[2-(2-Chloro-acetylamino)-ethyl]-2,4-dihydroxy-3,3-dimethyl-butyramide] | 1110 | 2540 |
| CC(C)(CO)[C@@H](O)C(=O)NCCN(CCCc1ccccc1)C(=O)CCl [Example 58, (R)—N-{2-[(2-Chloro-acetyl)-(3-phenyl-propyl)-amino]-ethyl}-2,4-dihydroxy-3,3-dimethyl-butyramide] | 220 | 2480 |
| CC(C)(CO)[C@@H](O)C(=O)NCCN(CCc1ccccc1)C(=O)CCl [Example 59, (R)—N-{2-[(2-Chloro-acetyl)-phenethyl-amino]-ethyl}-2,4-dihydroxy-3,3-dimethyl-butyramide] | 1200 | 4040 |

Further lines, results first:

| IC50 [1] [nM] | IC50 [2] [nM] | Compound |
| --- | --- | --- |
| 600 | 3570 | CC(C)(CO)[C@@H](O)C(=O)NCCN(Cc1ccccc1)C(=O)CCl [Example 60, (R)—N-{2-[Benzyl-(2-chloro-acetyl)-amino]-ethyl}-2,4-dihydroxy-3,3-dimethyl-butyramide] |
| 220 | 3280 | CC(C)(CO)[C@@H](O)C(=O)NCCN(CCOc1ccc(C#N)cc1)C(=O)CCl [Example 61, (R)—N-(2-{(2-Chloro-acetyl)-[2-(4-cyano-phenoxy)-ethyl]-amino}-ethyl)-2,4-dihydroxy-3,3-dimethyl-butyramide] |
| 210 | 1360 | CC(C)(CO)[C@@H](O)C(=O)NCCN(CC1CCN(c2ccc(C#N)cc2)CC1)C(=O)CCl [Example 62, (R)—N-(2-{(2-Chloro-acetyl)-[1-(4-cyano-phenyl)-piperidin-4-ylmethyl]-amino}-ethyl)-2,4-dihydroxy-3,3-dimethyl-butyramide] |
